Laboratory results from ChEMBL document CHEMBL5518186, “Discovery of the cereblon-recruiting tubulin PROTACs effective in overcoming Taxol resistance in vitro and in vivo” (Eur J Med Chem, 2024).
Calls of active or inactive are those of the source. No cut-off for these calls is given here.

Legend:
[1] = Inhibition of cell growth in human MCF7/Taxol cells incubated for 72 hrs by SRB method; assay type: functional, cell-based
[2] = test system: A549/TR; experiment: Induction of cell cycle arrest in human A549/Taxol cells assessed as accumulation of cells at G0/G1 phase at 0.002 uM incubated for 24 hrs by PI staining based flow cytometry analysis (reference value: 77.86%); assay type: functional
[3] = Resistance index, ratio of IC50 for human A549/Taxol cells to IC50 for human A549 cells; assay type: functional
[4] = test system: A549; experiment: Induction of cell cycle arrest in human A549 cells assessed as accumulation of cells at S phase at 0.002 uM incubated for 24 hrs by PI staining based flow cytometry analysis (reference value: 1.39%); assay type: functional
[5] = target: T1, Protein cereblon/Tubulin beta-3 chain (Homo sapiens, UniProt Q13509+Q96SW2); experiment: Protac activity at CRBN/beta3-tubulin in human MGC-803 cells assessed as reduction in beta3-tubulin level at 10 to 1000 nM incubated for 48 hrs by immunoblotting analysis; assay type: cell-based; details: dose 10-1000 nM
[6] = target: T2, Protein cereblon-alpha tubulin (Homo sapiens) (UniProt P0DPH7+P68366+Q71U36+P68363+Q9BQE3+Q6PEY2+A6NHL2+Q9NY65+Q96SW2); experiment: Protac activity at CRBN/alpha-tubulin in human MCF7 cells assessed as reduction in alpha-tubulin level at 10 to 1000 nM incubated for 48 hrs by immunoblotting analysis; assay type: cell-based; details: dose 10-1000 nM
[7] = test system: A549; experiment: Induction of cell cycle arrest in human A549 cells assessed as accumulation of cells at G0/G1 phase at 0.002 uM incubated for 24 hrs by PI staining based flow cytometry analysis (reference value: 66.75%); assay type: functional
[8] = target: T3, Protein cereblon/Tubulin beta (Homo sapiens) (UniProt P68371+Q9H4B7+Q13509+P04350+Q3ZCM7+P07437+Q13885+Q9BVA1+Q9BUF5+Q96SW2+A6NNZ2); experiment: Protac activity at CRBN/beta-tubulin in human A549 cells assessed as reduction in beta-tubulin level at 0.25 uM by immunoblotting analysis; assay type: cell-based; details: time 6-72 hrs, TDE = time-dependent effect
[9] = target: Protein cereblon/Tubulin beta; experiment: (§1) Protac activity at CRBN/beta-tubulin in human A549 cells assessed as reduction in beta-tubulin level incubated for 48 hrs by immunoblotting analysis; assay type: cell-based
[10] = target: T3, Protein cereblon/Tubulin beta (Homo sapiens); experiment: as §1; assay type: cell-based
[11] = test system: MGC-803; experiment: Antiproliferative activity against human MGC-803 cells incubated for 72 hrs; assay type: functional, cell-based; details: MGC-803, 72 h
[12] = target: T2, Protein cereblon-alpha tubulin (Homo sapiens); experiment: Protac activity at CRBN/alpha-tubulin in human MGC-803 cells assessed as reduction in alpha-tubulin level at 10 to 1000 nM incubated for 48 hrs by immunoblotting analysis; assay type: cell-based; details: dose 10-1000 nM
[13] = Toxicity in nude mouse xenografted with human A549/Taxol cells assessed as body weight loss at 15 mg/kg, ip administered once every 2 days for 23 days and measured every 3 days; assay type: organism-based, A549/TR; details: in vivo, 552 h, time 23 day
[14] = test system: A549; experiment: Induction of cell cycle arrest in human A549 cells assessed as accumulation of cells at S phase at 0.05 uM incubated for 24 hrs by PI staining based flow cytometry analysis (reference value: 1.39%); assay type: functional
[15] = test system: HepG2; experiment: Induction of apoptosis in human HepG2 cells; assay type: functional, cell-based
[16] = test system: A549; experiment: Induction of cell cycle arrest in human A549 cells assessed as accumulation of cells at G2/M phase at 0.05 uM incubated for 24 hrs by PI staining based flow cytometry analysis (reference value: 31.86%); assay type: functional
[17] = test system: HepG2; experiment: Induction of intracellular ROS generation in human HepG2 cells; assay type: functional, cell-based
[18] = target: T3, Protein cereblon/Tubulin beta (Homo sapiens); experiment: Protac activity at CRBN/beta-tubulin in human MGC-803 cells assessed as reduction in beta-tubulin level at 10 to 1000 nM incubated for 48 hrs by immunoblotting analysis; assay type: cell-based; details: dose 10-1000 nM
[19] = test system: A549; experiment: Induction of apoptosis in human A549 cells assessed as increase in apoptotic rate at 0.002 uM incubated for 48 hrs by Annexin V-FITC/PI staining based flow cytometry analysis (reference value: 1.3%); assay type: functional
[20] = test system: HepG2; experiment: Antiproliferative activity against human HepG2 cells incubated for 72 hrs; assay type: functional, cell-based; details: HepG2, 72 h
[21] = test system: A549/TR; experiment: Induction of cell cycle arrest in human A549/Taxol cells assessed as accumulation of cells at G2/M phase at 0.01 uM incubated for 24 hrs by PI staining based flow cytometry analysis (reference value: 17.02%); assay type: functional
[22] = test system: A549/TR; experiment: Inhibition of cell growth in human A549/Taxol cells incubated for 72 hrs by SRB method; assay type: functional, cell-based
[23] = target: T2, Protein cereblon-alpha tubulin (Homo sapiens); experiment: Protac activity at CRBN/alpha-tubulin in human A549/Taxol cells assessed as reduction in alpha-tubulin level at 0.25 uM pretreated with CA-4 for 2 hrs followed by compound addition and measured after 48 hrs by immunoblotting analysis; assay type: cell-based
[24] = test system: HUVEC; experiment: Antiangiogenic activity in HUVECs assessed as reduction in cord formation at 2.5 nM incubated for 6 to 8 hrs by inverted microscopic analysis; assay type: functional, cell-based; details: Homo sapiens, time 6-8 hrs
[25] = test system: A549; experiment: Antitumor activity against human A549 cells xenografted in nude mouse assessed as decrease in tumor weight at 15 mg/kg, ip administered once every 2 days for 23 days by Vernier caliper method; assay type: functional, organism-based; details: time 23.0 day
[26] = test system: A549/TR; experiment: Induction of cell cycle arrest in human A549/Taxol cells assessed as accumulation of cells at G2/M phase at 0.05 uM incubated for 24 hrs by PI staining based flow cytometry analysis (reference value: 17.02%); assay type: functional
[27] = test system: A549; experiment: Antitumor activity against human A549 cells xenografted in nude mouse assessed as tumor growth inhibition at 15 mg/kg, […] administered once every 2 days for 23 days by Vernier caliper method; assay type: functional; details: A549, 552 h, time 23 day, read-out: TGI
[28] = target: T1, Protein cereblon/Tubulin beta-3 chain; experiment: Protac activity at CRBN/beta3-tubulin in human A549 cells assessed as reduction in beta3-tubulin level at 0.25 uM by immunoblotting analysis; assay type: cell-based; details: time 6-72 hrs, TDE = time-dependent effect
[29] = test system: A549; experiment: Antiproliferative activity against human A549 cells incubated for 72 hrs; assay type: functional, cell-based; details: A549, 72 h
[30] = test system: U-937; experiment: Antiproliferative activity against human U-937 cells incubated for 72 hrs; assay type: functional, cell-based; details: U-937, 72 h
[31] = target: T2, Protein cereblon-alpha tubulin (Homo sapiens); experiment: Protac activity at CRBN/alpha-tubulin in human A549 cells assessed as reduction in alpha-tubulin level at 0.25 uM after 72 hrs by immunoblotting analysis; assay type: cell-based; set-up: scale not given: the % may be the effect or the level left
[32] = test system: MCF7; experiment: Inhibition of cell growth in human MCF7 cells incubated for 72 hrs by SRB method; assay type: functional, cell-based; details: MCF7, 72 h
[33] = target: T2, Protein cereblon-alpha tubulin (Homo sapiens); experiment: Protac activity at CRBN/alpha-tubulin in human A549 cells assessed as reduction in alpha-tubulin level at 0.01 to 1 uM incubated for 48 hrs by immunoblotting analysis; assay type: cell-based; details: dose 0.01-1 µM
[34] = test system: HepG2; experiment: Inhibition of cell proliferation in human HepG2 cells; assay type: functional, cell-based
[35] = test system: A549; experiment: Induction of apoptosis in human A549 cells assessed as increase in apoptotic rate at 0.01 uM incubated for 48 hrs by Annexin V-FITC/PI staining based flow cytometry analysis (reference value: 1.3%); assay type: functional
[36] = target: T3, Protein cereblon/Tubulin beta (Homo sapiens); experiment: Protac activity at CRBN/beta-tubulin in human HepG2 cells assessed as reduction in beta-tubulin level at 10 to 1000 nM incubated for 48 hrs by immunoblotting analysis; assay type: cell-based; details: dose 10-1000 nM

T1 sequence (Q13509 whole entry, looked up): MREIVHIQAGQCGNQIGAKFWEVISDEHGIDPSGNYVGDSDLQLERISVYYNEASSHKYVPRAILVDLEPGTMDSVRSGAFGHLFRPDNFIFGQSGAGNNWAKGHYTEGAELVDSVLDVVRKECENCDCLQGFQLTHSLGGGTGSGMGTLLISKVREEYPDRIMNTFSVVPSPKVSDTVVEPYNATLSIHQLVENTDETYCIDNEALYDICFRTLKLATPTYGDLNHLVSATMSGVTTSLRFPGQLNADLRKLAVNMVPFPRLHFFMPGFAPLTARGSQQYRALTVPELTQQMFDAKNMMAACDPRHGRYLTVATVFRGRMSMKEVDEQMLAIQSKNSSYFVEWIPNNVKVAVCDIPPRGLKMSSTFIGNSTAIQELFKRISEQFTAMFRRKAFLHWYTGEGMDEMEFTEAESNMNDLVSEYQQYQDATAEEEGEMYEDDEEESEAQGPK
T1 sequence (Q96SW2 whole entry, looked up): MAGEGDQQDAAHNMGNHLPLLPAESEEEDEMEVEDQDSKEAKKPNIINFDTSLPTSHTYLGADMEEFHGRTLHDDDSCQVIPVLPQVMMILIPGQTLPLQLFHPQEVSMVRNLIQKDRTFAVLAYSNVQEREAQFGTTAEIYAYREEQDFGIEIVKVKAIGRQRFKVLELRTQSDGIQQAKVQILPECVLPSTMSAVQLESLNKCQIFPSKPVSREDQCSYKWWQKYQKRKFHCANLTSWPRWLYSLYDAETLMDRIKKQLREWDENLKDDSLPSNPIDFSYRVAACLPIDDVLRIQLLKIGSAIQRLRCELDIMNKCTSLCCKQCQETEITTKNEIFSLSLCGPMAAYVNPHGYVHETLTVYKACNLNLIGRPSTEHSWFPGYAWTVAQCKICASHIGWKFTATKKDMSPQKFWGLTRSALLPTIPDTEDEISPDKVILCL

Structure (SMILES): COc1ccc(/C=C\c2cc(OC)c(OC)c(OC)c2)cc1OC(=O)CCCNc1cccc2c1C(=O)N(C1CCC(=O)NC1=O)C2=O (configuration not stated)
- IC50 [1]: 6 nM
- Activity [2]: 67.61%
- Ratio IC50 [3]: 0.5
- Activity [4]: 5.65%
- Activity [5]: Active
- Activity [6]: Active
- Activity [7]: 57.32%
- Activity [8]: Tde
- DC50 [9]: 856 nM
- Activity [10]: Dose-Dependent Effect
- IC50 [11]: 8 nM
- Activity [12]: Active
- Activity [13]: Non-Toxic
- Activity [14]: 16.44%
- Activity [15]: Active
- Activity [16]: 73.41%
- Activity [17]: Active
- Activity [18]: Active
- Activity [19]: 7.23%
- IC50 [20]: 4 nM
- Activity [21]: 63.83%
- IC50 [22]: 5 nM
- inhibition [22]: Dose-Dependent Effect
- Activity [23]: inactive
- Activity [24]: Active
- Activity [25]: Active
- Activity [26]: 66.57%
- inhibition in vivo at 15 mg/kg [27]: 34.1%
- Activity [28]: Tde
- IC50 [29]: 10 nM
- IC50 [30]: 18 nM
- Activity [31]: 43.7%
- IC50 [32]: 12 nM
- Activity [33]: Active
- inhibition [34]: Active
- Activity [35]: 23.1%
- Activity [36]: Active
